Experimental findings from ChEMBL document CHEMBL6127131, “Design, Synthesis, and Biological Evaluation of New Selective PDE4 Inhibitors for Topical Treatment of Psoriasis” (J Med Chem, 2024) are described below.

Series [1] deals with T1, 3',5'-cyclic-AMP phosphodiesterase 4D (Homo sapiens, UniProt Q08499). Briefly: Inhibition of PDE4D (unknown origin).
The nature of series [2]: Metabolic stability in human liver microsomes assessed as half-life preincubated for 2 hrs followed by NADPH regenerating agent addition and measured upto 4 hrs by LC-MS analysis. The class given is ADME, Microsome. To be noted: time < 6 hrs. Background: Microsomes from liver hold many membrane-bound enzymes, among them those of drug oxidation.
The test system of series [3] is RAW264.7. Kind of series: Anti-inflammatory activity against LPS induced mouse RAW264.7 cells assessed as reduction in TNFalpha secretion incubated for 24 hrs by ELISA. Format: functional, cell-based. The settings on record: RAW264.7, 24 h.
The test system of series [4] is RAW264.7. Briefly: Anti-inflammatory activity against LPS induced mouse RAW264.7 cells assessed as reduction in IL-6 secretion incubated for 24 hrs by ELISA. Format: functional, cell-based. The settings on record: RAW264.7, 24 h.
Series [5] in a line: Cytotoxicity against mouse RAW264.7 cells incubated for 24 hrs by CCK8 assay. Format: toxicity, cell-based. On the technique in general: Tetrazolium assays rely on reduction of a dye to a coloured formazan, in cell work by metabolically active cells.
The test system of another series is HaCaT. Kind of series: Anti-inflammatory activity against M5 induced human HaCaT cells assessed as reduction in TNFalpha secretion incubated for 24 hrs by ELISA. The class given is functional, cell-based. On the technique in general: In an ELISA, binding on a coated surface is turned into a signal by an enzyme label.
Series [6] in a line: Cytotoxicity against human HaCaT cells incubated for 24 hrs by CCK8 assay. Format: toxicity, cell-based.
Series [7] has as its target 3',5'-cyclic-AMP phosphodiesterase 4A (Homo sapiens, UniProt P27815). Briefly: Inhibition of PDE4A (unknown origin).
The target of series [8] is Cannabinoid receptor 1 (Homo sapiens) (UniProt P21554). Kind of series: Inhibition of CB1 (unknown origin) at 10 uM relative to control.
Chain of Cannabinoid receptor 1 (Homo sapiens) (P21554 whole entry): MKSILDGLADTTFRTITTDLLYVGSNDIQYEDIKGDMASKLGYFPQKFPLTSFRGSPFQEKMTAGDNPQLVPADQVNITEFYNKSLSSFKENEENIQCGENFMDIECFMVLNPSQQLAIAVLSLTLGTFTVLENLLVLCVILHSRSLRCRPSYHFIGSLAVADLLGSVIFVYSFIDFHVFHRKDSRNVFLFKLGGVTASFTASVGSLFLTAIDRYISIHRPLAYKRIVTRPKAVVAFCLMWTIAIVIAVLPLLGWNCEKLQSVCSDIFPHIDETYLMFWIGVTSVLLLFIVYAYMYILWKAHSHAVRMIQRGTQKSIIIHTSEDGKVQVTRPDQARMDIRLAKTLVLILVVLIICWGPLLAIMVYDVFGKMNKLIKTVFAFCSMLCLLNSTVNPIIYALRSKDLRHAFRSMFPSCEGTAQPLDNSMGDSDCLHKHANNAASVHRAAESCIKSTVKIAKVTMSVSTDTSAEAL
The target in series [9] is 5-hydroxytryptamine receptor 1B (Homo sapiens) (UniProt P28222). Kind of series: Inhibition of 5-HT1B (unknown origin) at 10 uM relative to control.
Chain of 5-hydroxytryptamine receptor 1B (Homo sapiens) (P28222 whole entry): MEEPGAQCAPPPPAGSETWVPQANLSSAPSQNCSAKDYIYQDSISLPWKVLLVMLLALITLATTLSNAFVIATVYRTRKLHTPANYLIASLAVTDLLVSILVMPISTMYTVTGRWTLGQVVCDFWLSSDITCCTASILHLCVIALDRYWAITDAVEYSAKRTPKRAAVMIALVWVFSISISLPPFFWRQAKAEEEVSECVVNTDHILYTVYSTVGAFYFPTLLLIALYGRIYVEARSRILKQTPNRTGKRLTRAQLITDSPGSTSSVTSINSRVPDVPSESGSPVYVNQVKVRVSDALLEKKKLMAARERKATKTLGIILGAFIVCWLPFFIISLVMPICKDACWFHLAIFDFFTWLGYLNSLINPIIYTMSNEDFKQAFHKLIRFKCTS
Series [10] has as its target D(2) dopamine receptor (Homo sapiens) (UniProt P14416). Kind of series: Inhibition of D2S (unknown origin) at 10 uM relative to control.
Series [11] in a line: AUC(0 to t) in ICR(CD-1) mouse at 5 mg/kg, iv measured upto 24 hrs by LC-MS/MS analysis. Format: ADME, organism-based. To be noted: in vivo.
The nature of series [12]: AUC(0 to infinity) in ICR(CD-1) mouse at 5 mg/kg, iv measured upto 24 hrs by LC-MS/MS analysis. The class given is ADME, organism-based. The settings on record: in vivo.
Series [13] in a line: Initial plasma concentration in ICR(CD-1) mouse at 5 mg/kg, iv measured upto 24 hrs by LC-MS/MS analysis. Format: ADME, organism-based.
The nature of series [14]: Half-life in ICR(CD-1) mouse at 5 mg/kg, iv measured upto 24 hrs by LC-MS/MS analysis. Format: ADME, organism-based. The settings on record: in vivo.
A short description of series [15]: Apparent volume of distribution in ICR(CD-1) mouse at 5 mg/kg, iv measured upto 24 hrs by LC-MS/MS analysis. The class given is ADME, organism-based. To be noted: in vivo, read-out: Vz.
Series [16] in a line: Clearance in ICR(CD-1) mouse at 5 mg/kg, iv measured upto 24 hrs by LC-MS/MS analysis. Format: ADME, organism-based. To be noted: in vivo.
Series [17] can be described thus: AUC(0 to t) in ICR(CD-1) mouse at 10 mg/kg, po measured upto 24 hrs by LC-MS/MS analysis. The class given is ADME, organism-based. The settings on record: in vivo.
A short description of series [18]: AUC(0 to infinity) in ICR(CD-1) mouse at 10 mg/kg, po measured upto 24 hrs by LC-MS/MS analysis. The class given is ADME, organism-based. To be noted: in vivo.
A short description of series [19]: Cmax in ICR(CD-1) mouse at 10 mg/kg, po measured upto 24 hrs by LC-MS/MS analysis. The class given is ADME, organism-based. To be noted: in vivo.
Series [20] can be described thus: Half-life in ICR(CD-1) mouse at 10 mg/kg, po measured upto 24 hrs by LC-MS/MS analysis. Format: ADME, organism-based. To be noted: in vivo.
Series [21] is described as follows: Tmax in ICR(CD-1) mouse at 10 mg/kg, po measured upto 24 hrs by LC-MS/MS analysis. To be noted: in vivo. The class given is ADME, organism-based.
Series [22] is described as follows: Oral bioavailability in ICR(CD-1) mouse at 10 mg/kg measured upto 24 hrs by LC-MS/MS analysis. To be noted: in vivo. The class given is ADME, organism-based.
Series [23] in a line: Drug concentration in ICR(CD-1) mouse blood at 1.2% administered topically and measured after 1 hr by LC-MS/MS analysis. Format: ADME, tissue-based. To be noted: topical or ocular, route top, read-out: Ct.
Series [24] in a line: Drug concentration in ICR(CD-1) mouse blood at 1.2% administered topically and measured after 2 hrs by LC-MS/MS analysis. The class given is ADME, tissue-based. To be noted: topical or ocular, route top, read-out: Ct.
A short description of series [25]: Metabolic stability in monkey liver microsomes assessed as half-life preincubated for 2 hrs followed by NADPH regenerating agent addition and measured upto 4 hrs by LC-MS analysis. To be noted: rhesus monkey, time < 6 hrs. Format: ADME, Macaca mulatta, Microsome.
A short description of series [26]: Metabolic stability in dog liver microsomes assessed as half-life preincubated for 2 hrs followed by NADPH regenerating agent addition and measured upto 4 hrs by LC-MS analysis. The class given is ADME, Canis lupus familiaris, Microsome. The settings on record: time < 6 hrs.
Series [27] in a line: Metabolic stability in mouse liver microsomes assessed as half-life preincubated for 2 hrs followed by NADPH regenerating agent addition and measured upto 4 hrs by LC-MS analysis. Format: ADME, Microsome. To be noted: time < 6 hrs.
Series [28] in a line: Metabolic stability in rat liver microsomes assessed as half-life preincubated for 2 hrs followed by NADPH regenerating agent addition and measured upto 4 hrs by LC-MS analysis. The settings on record: time < 6 hrs. The class given is ADME, Microsome.
Series [29] is filed under the species Mus musculus. Kind of series: Antiinflammatory activity against imiquimod-induced psoriasis in BALB/c mouse model assessed as improvement in clinical features of skin lesions pretreated with IMQ for 4 hrs followed by compound addition once daily from day 2 to 8. Format: functional, organism-based. To be noted: dose 0.3-1.2 %, time 7.0 day.
A short description of series [30]: Toxicity in BALB/c mouse assessed as body weight loss at 0.3 to 1.2% administration as ointment once a day from day 2 to 8. The settings on record: in vivo, topical_or_ocular, 168 h, dose 0.3-1.2 %, time 7 day.
Series [31] has as its system Mus musculus. Kind of series: Antiinflammatory activity against imiquimod-induced psoriasis in BALB/c mouse model assessed as reduction in spleen enlargement at 0.3 to 1.2% administration as ointment pretreated with IMQ for 4 hrs followed by compound addition once daily from day 2 to 8. The class given is functional, organism-based. To be noted: dose 0.3-1.2 %, time 7.0 day.

The test system of series [32] is Mus musculus. Briefly: Antiinflammatory activity against imiquimod-induced psoriasis in BALB/c mouse model assessed as reduction in IL-1beta protein level at 1.2% administration as ointment pretreated with IMQ for 4 hrs followed by compound addition once daily from day 2 to 8 by ELISA. The class given is functional, organism-based. To be noted: time 7.0 day.
In series [33] the test system is Mus musculus. Briefly: Antiinflammatory activity against imiquimod-induced psoriasis in BALB/c mouse model assessed as reduction in IL-17A protein level at 1.2% administration as ointment pretreated with IMQ for 4 hrs followed by compound addition once daily from day 2 to 8 by ELISA. The class given is functional, organism-based. To be noted: time 7.0 day.
Series [34] concerns Mus musculus. Kind of series: Antiinflammatory activity against imiquimod-induced psoriasis in BALB/c mouse model assessed as reduction in skin thickness at 0.3 to 1.2% administration as ointment pretreated with IMQ for 4 hrs followed by compound addition once daily from day 2 to 8 by H and E staining based assay. Format: functional, organism-based. To be noted: dose 0.3-1.2 %, time 7.0 day.

The subject of series [35] is Mus musculus. Kind of series: Antiinflammatory activity against imiquimod-induced psoriasis in BALB/c mouse model assessed as reduction in immune cell infiltration at 0.3 to 1.2% administration as ointment pretreated with IMQ for 4 hrs followed by compound addition once daily from day 2 to 8 by H and E staining based assay. The settings on record: dose 0.3-1.2 %, time 7.0 day. The class given is functional, organism-based.

Series [36] concerns RAW264.7. Kind of series: Downregulation of IL-1beta mRNA expression in LPS induced mouse RAW264.7 cells at 5 to 20 uM preincubated for 12 hrs followed by LPS stimulation for 4 hrs by RT-qPCR analysis. Format: functional, cell-based. To be noted: dose 5-20 µM, time 16.0 hrs.
Series [37] concerns RAW264.7. Kind of series: Downregulation of IL-6 mRNA expression in LPS induced mouse RAW264.7 cells at 5 to 20 uM preincubated for 12 hrs followed by LPS stimulation for 4 hrs by RT-qPCR analysis. Format: functional, cell-based. The settings on record: dose 5-20 µM, time 16.0 hrs.
In series [38] the test system is RAW264.7. Briefly: Downregulation of IL-17A mRNA expression in LPS induced mouse RAW264.7 cells at 5 to 20 uM preincubated for 12 hrs followed by LPS stimulation for 4 hrs by RT-qPCR analysis. The class given is functional, cell-based. To be noted: dose 5-20 µM, time 16.0 hrs.
The subject of series [39] is RAW264.7. Kind of series: Downregulation of TNFalpha mRNA expression in LPS induced mouse RAW264.7 cells at 5 to 20 uM preincubated for 12 hrs followed by LPS stimulation for 4 hrs by RT-qPCR analysis. The class given is functional, cell-based. To be noted: dose 5-20 µM, time 16.0 hrs.
In series [40] the test system is RAW264.7. Kind of series: Upregulation of EPAC1 protein expression in mouse RAW264.7 cells at 5 to 20 uM preincubated for 12 hrs followed by LPS stimulation for 4 hrs by Western blotting analysis. The class given is functional, cell-based. The settings on record: dose 5-20 µM, time 16.0 hrs.
In series [41] the test system is RAW264.7. Briefly: Upregulation of p-CREB1/CREB1 protein ratio in mouse RAW264.7 cells at 5 to 20 uM preincubated for 12 hrs followed by LPS stimulation for 4 hrs by Western blotting analysis. Format: functional, cell-based. To be noted: dose 5-20 µM, time 16.0 hrs.
In series [42] the target is T1, 3',5'-cyclic-AMP phosphodiesterase 4D. Kind of series: Inhibition of PDE4D7 (unknown origin).

Calls of active or inactive are those of the source. The calls are words filed in the database; no cut-off is given here.

As a reminder, the IC50 is the midpoint of a concentration-inhibition curve. Usually half-life stands for how long it takes for the measured level to halve. Broadly, the CC50 is the concentration at which the toxic effect on the cells reaches its halfway point. The inhibition is the drop in the measured response relative to a control, in per cent. In general, AUC(0-t) refers to the area under the concentration-time curve up to a stated or last time point. The AUC(0-inf) is total exposure, with the tail of the curve extrapolated. By clearance is commonly meant the rate of elimination divided by the concentration. For orientation: Cmax means the peak of the concentration-time curve. The Tmax is the time at which the peak concentration occurs. In general, bioavailability refers to the share of a dose that reaches the circulation, judged against a reference dose that is usually intravenous.

T1 sequence (Q08499 whole entry): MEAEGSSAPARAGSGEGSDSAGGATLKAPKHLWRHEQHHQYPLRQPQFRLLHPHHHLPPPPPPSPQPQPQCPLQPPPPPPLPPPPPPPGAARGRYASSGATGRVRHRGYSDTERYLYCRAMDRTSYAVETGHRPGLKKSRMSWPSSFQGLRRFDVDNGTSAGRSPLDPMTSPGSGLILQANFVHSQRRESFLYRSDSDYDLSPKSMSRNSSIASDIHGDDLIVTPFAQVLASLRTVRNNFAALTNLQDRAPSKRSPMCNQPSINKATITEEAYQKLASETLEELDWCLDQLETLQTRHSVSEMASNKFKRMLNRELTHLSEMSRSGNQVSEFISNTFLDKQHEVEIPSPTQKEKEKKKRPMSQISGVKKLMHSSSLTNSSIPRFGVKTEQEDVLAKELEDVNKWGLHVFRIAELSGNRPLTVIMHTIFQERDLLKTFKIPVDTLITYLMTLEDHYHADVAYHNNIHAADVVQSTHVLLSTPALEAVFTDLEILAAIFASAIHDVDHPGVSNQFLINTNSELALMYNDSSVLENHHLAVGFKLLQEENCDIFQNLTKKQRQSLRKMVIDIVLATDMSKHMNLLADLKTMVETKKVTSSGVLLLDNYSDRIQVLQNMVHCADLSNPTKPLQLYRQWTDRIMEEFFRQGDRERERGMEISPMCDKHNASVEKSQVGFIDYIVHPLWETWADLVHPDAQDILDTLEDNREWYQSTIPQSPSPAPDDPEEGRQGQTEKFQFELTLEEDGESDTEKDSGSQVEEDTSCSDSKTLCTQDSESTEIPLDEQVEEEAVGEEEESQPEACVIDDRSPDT
Chain of D(2) dopamine receptor (Homo sapiens) (P14416 whole entry): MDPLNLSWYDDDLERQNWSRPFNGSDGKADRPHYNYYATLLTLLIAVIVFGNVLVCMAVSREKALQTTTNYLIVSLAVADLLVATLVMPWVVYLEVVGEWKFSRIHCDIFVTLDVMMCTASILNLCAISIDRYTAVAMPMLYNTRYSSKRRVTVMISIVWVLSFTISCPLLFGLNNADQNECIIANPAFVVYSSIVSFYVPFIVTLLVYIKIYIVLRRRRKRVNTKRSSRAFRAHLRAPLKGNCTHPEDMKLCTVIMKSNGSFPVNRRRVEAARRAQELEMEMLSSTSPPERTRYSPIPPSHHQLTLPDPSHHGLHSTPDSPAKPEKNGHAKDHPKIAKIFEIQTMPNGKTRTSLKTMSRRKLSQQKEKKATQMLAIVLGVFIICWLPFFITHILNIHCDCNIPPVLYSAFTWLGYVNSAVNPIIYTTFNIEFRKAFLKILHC
Chain of 3',5'-cyclic-AMP phosphodiesterase 4A (P27815 whole entry): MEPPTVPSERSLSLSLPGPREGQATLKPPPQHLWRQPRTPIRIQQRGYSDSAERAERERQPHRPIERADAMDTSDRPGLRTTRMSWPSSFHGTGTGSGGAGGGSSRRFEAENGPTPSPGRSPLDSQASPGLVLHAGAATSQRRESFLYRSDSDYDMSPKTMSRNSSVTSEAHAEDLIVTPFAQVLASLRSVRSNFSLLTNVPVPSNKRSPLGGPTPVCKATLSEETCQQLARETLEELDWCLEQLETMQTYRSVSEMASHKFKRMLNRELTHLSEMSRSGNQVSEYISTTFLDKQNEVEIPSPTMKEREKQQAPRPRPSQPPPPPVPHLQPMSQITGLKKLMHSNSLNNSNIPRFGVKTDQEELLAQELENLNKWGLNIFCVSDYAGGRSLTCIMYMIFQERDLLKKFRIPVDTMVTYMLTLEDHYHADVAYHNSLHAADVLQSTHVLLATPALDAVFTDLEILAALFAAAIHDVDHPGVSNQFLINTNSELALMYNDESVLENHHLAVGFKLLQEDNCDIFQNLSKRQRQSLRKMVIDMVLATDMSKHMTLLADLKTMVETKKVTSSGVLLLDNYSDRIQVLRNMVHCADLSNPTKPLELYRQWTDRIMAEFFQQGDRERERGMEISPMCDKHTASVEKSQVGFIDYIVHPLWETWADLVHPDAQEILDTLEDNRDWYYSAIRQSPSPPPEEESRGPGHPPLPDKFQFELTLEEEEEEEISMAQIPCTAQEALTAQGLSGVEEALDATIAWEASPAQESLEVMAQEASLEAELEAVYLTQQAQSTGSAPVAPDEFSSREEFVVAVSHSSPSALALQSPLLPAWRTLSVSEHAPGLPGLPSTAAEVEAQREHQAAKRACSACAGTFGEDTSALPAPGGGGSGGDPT

`CCOc1cc([C@@H](CS(C)(=O)=O)N2C(=O)c3csc(NC(C)=O)c3C2=O)ccc1OC` yielded a concentration for half-maximal inhibition (IC50) in [1] of 0.114 µM.

For `O=C(NCc1ncccn1)c1csc(-c2ccc(OC(F)F)c(OCC3CC3)c2)n1`, the half-life in [2] was 296 min; in series [14], 16.2 min; in series [20], 133 min; in [25], 25.6 min; in series [26], 62.1 min; in series [27], 28.6 min. In addition, the half-life in [28] came to 25.3 min. The IC50 is 34.2 µM in the series with RAW264.7 [3], 40.9 µM in the series with RAW264.7 [4], 38.6 µM with HaCaT and 0.00711 µM in [7]. Moreover, the 50% cytotoxic concentration (CC50) at 24 h in [5] and in series [6] was greater than 50 µM each time. The inhibition in series [8] stood at 51.4%; in series [9] it was 56.6%; in series [10], 53.8%. Also, the AUC(0-t) at 24 h in [11] stood at 619 ng·h/mL; in series [17] it was 41 ng·h/mL. The results for the AUC(0-inf) in series [12] and in [18] were 620 ng·h/mL and 51 ng·h/mL, respectively. This molecule also returned a C0 at 24 h in series [13] of 5240 ng/mL. The Vd in [15] stood at 3.12 L/kg. The clearance in [16] was 135 mL/min/kg. In addition, the Cmax in series [19] worked out at 31 ng/mL. Also, the time of peak concentration (Tmax) in [21] came out at 64.8 min. In [22], this molecule displayed a bioavailability of 3.31%. Also, the concentration at 1 h in [23] stood at 0.34 ng/mL. Besides, the concentration at 2 h in series [24] came to 0.35 ng/mL. The results for the Activity result (in the series filed under Mus musculus [29]; in series [30]) were “Dose-Dependent Effect” and “Non-Toxic”, respectively. For the same molecule, the outcome with Mus musculus [31], in the series on Mus musculus [32], with Mus musculus [33], in the series with Mus musculus [34], in the series on Mus musculus [35] and in the series with RAW264.7 [36] was Active. Besides, the result with RAW264.7 [37], with RAW264.7 [38], with RAW264.7 [39], with RAW264.7 [40] and in the series with RAW264.7 [41] was Active.

For `N#Cc1ccc(Oc2ccc3c(c2)COB3O)cc1` [CRISABOROLE], 0.17 µM corresponded to half-maximal inhibition in series [42] (IC50).
